Here are results for 8 compounds from patent publication EP4786487A1, “PEPTIDE” (Peptidream Inc, priority 2023, dated 2025).

pIC50: −log10 of the molar value. Where two headings read alike, the source gives them in different places. Starred links: 1 amine or outer side, 2 acyl side, 3 side chain; linkers in the order of their positions; H or OH if unused. Positions of bridges follow the written chain, without caps; N, C: chain ends. Non-standard residues stand in square brackets, D forms with d. Residues, ends and D or L forms follow the SMILES beside them. *: point of attachment. Trp(6-OH,1-(4-HO2C-Ph)) = N[C@@H](Cc1cn(-c2ccc(C(=O)O)cc2)c2cc(O)ccc12)C(=O)O; Phe(3-OCH2COOH) = N[C@@H](Cc1cccc(OCC(=O)O)c1)C(=O)O; N(CH2CH2CO)Gly = O=C(CN(CCC(=O)[*:3])[*:1])[*:2]; NMePhe(4-CH2NH2) = CN[C@@H](Cc1ccc(CN)cc1)C(=O)O; Piperidine(4-CH2CH2CONH2) = NC(=O)CCC1CCN(*)CC1; Phe(4-COOH) = N[C@@H](Cc1ccc(C(=O)O)cc1)C(=O)O; Gly(N(CH2)3COOH) = O=C(O)CCCNCC(=O)O; X1 = CCCCCCC[C@H](N[*:1])C(=O)[*:2]; NMeAad = CN[C@@H](CCCC(=O)O)C(=O)O; NMeF = CN[C@@H](Cc1ccccc1)C(=O)O; NMeDab = CN[C@@H](CCN)C(=O)O; NMeDap = CN[C@@H](CN)C(=O)O; NMeA = CN[C@@H](C)C(=O)O

Assay [1] concerns the target T1, GDF-11 (Homo sapiens, UniProt O95390).
T1 construct: purchased R&D systems 1958-GD-G8/CF
T1 sequence (O95390 299-407): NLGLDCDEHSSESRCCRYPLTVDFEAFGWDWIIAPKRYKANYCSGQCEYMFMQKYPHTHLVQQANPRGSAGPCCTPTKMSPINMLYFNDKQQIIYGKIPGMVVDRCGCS
The experiment in a line: Reporter gene assay for myostatin signaling in HepG2 cell line, Evaluation Procedure (1), GDF-11 inhibition. It counts as cell-based. How it is done: (§1) In this Example, the in vitro myostatin inhibitory effects of the peptides synthesized in Examples 1 and 2 were evaluated using a reporter gene assay for myostatin signaling in HepG2 cell line.
(§2) HepG2 cell line (HB-8065, ATCC) cultured in EMEM (055-08975, WAKO Industries) containing 10% FBS (10270106, Gibco) and 50 µg/mL gentamicin (11980-14, Nacalai Tesque) was seeded in 96-well plates (167008, Thermo) at 2.0 × 10^4 cells/well and incubated in a CO2 incubator (37°C, 5% CO2) for 24 hours. The pGL3(CAGA)12-luc plasmid, namely a pGL3 vector (E1751, Promega) having a luciferase gene inserted downstream of a promoter sequence with 12 CAGA repeats attached, was added to the wells along with a transfection reagent (X-treamGENE9 DNA Transfection Reagent, 6365809001, Roche) at a concentration of 0.04 µg/well. The cell line was cultured in a CO2 incubator (37°C, 5% CO2) for 24 hours for transfection. The medium was discarded and replaced with EMEM containing 50 µL/well of 0.1% bovine serum albumin (A7030, Sigma) and 50 µg/mL gentamicin, and incubated in a CO2 incubator (37°C, 5% CO2) for 2 hours.
(§3) Myostatin (788-G8/C, R&D systems) or GDF-11 (1958-GD-G8/CF, R&D systems) was added so that the final concentrations were those listed in Table 5.
(§4) A 4-fold dilution series of various peptides synthesized in Examples 1 and 2 was added to achieve 0.006-100 nmol/L (myostatin inhibition) and 0.12-2000 nmol/L (GDF-11 inhibition). At this time, blank wells, in which neither myostatin, GDF-11, nor each peptide was added, were also prepared and incubated in a CO2 incubator (37°C, 5% CO2) for 20 to 24 hours.
(§5) The medium containing the cells was removed, and a mixture containing PBS (14190144, Thermo) and a chromogenic substrate One-Glo Luciferase Assay System (E6120, Promega) at a ratio of 1:1 was added to each well at 100 µL/well. This was stirred with a plate shaker for 5 min and transferred to a 384-well plate (3570, Corning) at a volume of 20 µL/well.
(§6) The plate was centrifuged at 1,000 × g for 1 min and the luminescence signal (700 nm luminescence) was measured using a plate reader (Envision 2104, PerkinElmer). Based on the measured values, IC50 values of the peptides were calculated using software (Prism 9, GraphPad). […]
(§7) In this Example, the in vitro myostatin inhibitory effects of the peptides synthesized in Examples 10 and 11 were evaluated according to the Evaluation Procedure (1) in Example 3.
On the technique in general: Reporter assays use an easily measured gene product as a stand-in for the process of interest.

Assay [2] addresses T2, Myostatin (Homo sapiens, UniProt O14793).
T2 construct: active myostatin (also called mature myostatin) is a homodimer consisting of two C-terminal growth factor domains; purchased R&D systems 788-G8/CF
T2 sequence (O14793 267-375): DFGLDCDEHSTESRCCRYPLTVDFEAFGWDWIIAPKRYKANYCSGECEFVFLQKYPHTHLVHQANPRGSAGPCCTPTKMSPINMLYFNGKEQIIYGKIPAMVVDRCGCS
The experiment in a line: Reporter gene assay for myostatin signaling in HepG2 cell line, Evaluation Procedure (1), myostatin inhibition. It counts as cell-based. How it is done:
as §1, §2, §3, §4, §5, §6, §7

The mark [3] stands for this setting: Method D: GDF-11 1.5 ng/mL, read-out: IC50 (Luciferase) GDF-11 HepG2.
The mark [4] stands for this setting: Method D: Myostatin 1.5 ng/mL, read-out: IC50 (Luciferase) Myostatin HepG2.
Setting [5] is: HepG2, luciferase reporter, Evaluation Procedure (1), Method D, read-out: IC50 (Luciferase) GDP-11 HepG2.
Where [6] appears, read: HepG2, luciferase reporter, Evaluation Procedure (1), Method D.

As a reminder, the pIC50 is the negative decadic logarithm of the IC50, by convention in mol/L. Take `CCCCCCC[C@@H]1NC(=O)[C@@H]2Cc3ccc(cc3)CNC(=O)CC[C@H](NC(=O)CSC[C@H](C(=O)O)NC(=O)[C@H](Cc3ccccc3)N(C)C(=O)[C@H](C)N(C)C1=O)C(=O)N[C@@H](C)C(=O)N[C@@H](Cc1c[nH]c3ccccc13)C(=O)N[C@@H](Cc1ccc(O)cc1)C(=O)N(C)[C@@H](Cc1ccccc1)C(=O)N[C@@H]([C@@H](C)CC)C(=O)N(C)[C@@H](C)C(=O)N[C@@H](Cc1cccc(OCC(=O)O)c1)C(=O)N[C@@H](Cc1ccc(C(=O)O)cc1)C(=O)N[C@@H](CCCNC(=N)N)C(=O)N2C` [Myostatin_99_v358] ({CH2CO}-EAWY[NMeF]I[NMeA][Phe(3-OCH2COOH)][Phe(4-COOH)]R[NMePhe(4-CH2NH2)][X1][NMeA][NMeF][dC]-OH; lactam 1-11; thioether N-15): the negative logarithm of the IC50 (pIC50) in assay [1] (setting [3]) is 7.28; in assay [2] (setting [4]), 9.77.
Consider `CCCCCCC[C@@H]1NC(=O)[C@H](Cc2ccccc2)N(C)C(=O)[C@H](CCCNC(=N)N)NC(=O)[C@H](Cc2ccc(C(=O)O)cc2)NC(=O)[C@H](Cc2cccc(OCC(=O)O)c2)NC(=O)[C@H](C)N(C)C(=O)[C@H]([C@@H](C)CC)NC(=O)[C@H](Cc2ccccc2)N(C)C(=O)[C@H](Cc2ccc(O)cc2)NC(=O)[C@H](Cc2c[nH]c3ccccc23)NC(=O)[C@H](C)NC(=O)[C@@H]2CC(=O)NCC[C@@H](C(=O)N(C)[C@@H](Cc3ccccc3)C(=O)N[C@@H](C(=O)O)CSCC(=O)N2)N(C)C1=O` [Myostatin_99_v367] ({CH2CO}-DAWY[NMeF]I[NMeA][Phe(3-OCH2COOH)][Phe(4-COOH)]R[NMeF][X1][NMeDab][NMeF][dC]-OH; lactam 1-13; thioether N-15), for which the results for the pIC50 in assay [1] (setting [3]) and in assay [2] (setting [4]) were 6.93 and 9.82, respectively.
Consider `CCCCCCC[C@@H]1NC(=O)[C@@H]2Cc3ccc(cc3)CNC(=O)CC[C@H](NC(=O)CSC[C@H](C(=O)O)NC(=O)[C@H](Cc3ccccc3)N(C)C(=O)[C@H](C)N(C)C1=O)C(=O)N[C@@H](C)C(=O)N[C@@H](Cc1cn(-c3ccc(C(=O)O)cc3)c3cc(O)ccc13)C(=O)N[C@@H](Cc1ccc(O)cc1)C(=O)N(C)[C@@H](Cc1ccccc1)C(=O)N[C@@H]([C@@H](C)CC)C(=O)N1CCC[C@@H]1C(=O)N[C@@H](Cc1cccc(OCC(=O)O)c1)C(=O)N[C@@H](Cc1ccc(C(=O)O)cc1)C(=O)N[C@@H](CCCNC(=N)N)C(=O)N2C` [Myostatin_99_v424] ({CH2CO}-EA[Trp(6-OH,1-(4-HO2C-Ph))]Y[NMeF]I[dP][Phe(3-OCH2COOH)][Phe(4-COOH)]R[NMePhe(4-CH2NH2)][X1][NMeA][NMeF][dC]-OH; lactam 1-11; thioether N-15), for which the negative logarithm of the IC50 (pIC50) was 7.82 in assay [1] (setting [3]) and 10.40 in assay [2] (setting [4]).
`CCCCCCC[C@@H]1NC(=O)[C@H](Cc2ccccc2)N(C)C(=O)[C@H](CCCNC(=N)N)NC(=O)[C@H](Cc2ccc(C(=O)O)cc2)NC(=O)[C@H](Cc2cccc(OCC(=O)O)c2)NC(=O)[C@H]2CCCN2C(=O)[C@H]([C@@H](C)CC)NC(=O)[C@H](Cc2ccccc2)N(C)C(=O)[C@H](Cc2ccc(O)cc2)NC(=O)[C@H](Cc2cn(-c3ccc(C(=O)O)cc3)c3cc(O)ccc23)NC(=O)[C@H](C)NC(=O)CN2CCC(=O)NC[C@@H](C(=O)N(C)[C@@H](Cc3ccccc3)C(=O)N[C@@H](C(=O)N3CCC(CCC(N)=O)CC3)CSCC2=O)N(C)C1=O` [Myostatin_99_v478] ({CH2CO}-[N(CH2CH2CO)Gly]A[Trp(6-OH,1-(4-HO2C-Ph))]Y[NMeF]I[dP][Phe(3-OCH2COOH)][Phe(4-COOH)]R[NMeF][X1][NMeDap][NMeF][dC]-{Piperidine(4-CH2CH2CONH2)}; lactam 1-13; thioether N-15): the pIC50 was 7.59 in assay [1] (setting [5]) and 10.40 in assay [2] (setting [6]).
Take `CCCCCCC[C@@H]1NC(=O)[C@H](Cc2ccccc2)N(C)C(=O)[C@H](CCCNC(=N)N)NC(=O)[C@H](Cc2ccc(C(=O)O)cc2)NC(=O)[C@H](Cc2cccc(OCC(=O)O)c2)NC(=O)[C@H]2CCCN2C(=O)[C@H]([C@@H](C)CC)NC(=O)[C@H](Cc2ccccc2)N(C)C(=O)[C@H](Cc2ccc(O)cc2)NC(=O)[C@H](Cc2cn(-c3ccc(C(=O)O)cc3)c3cc(O)ccc23)NC(=O)[C@H](C)NC(=O)CN(CCCC(=O)O)C(=O)[C@H](C)N(C)C(=O)[C@@H](C)NC(=O)[C@H](Cc2ccccc2)N(C)C(=O)[C@H](C)N(C)C1=O` [Myostatin_99_v482] (cyclo(A[Trp(6-OH,1-(4-HO2C-Ph))]Y[NMeF]I[dP][Phe(3-OCH2COOH)][Phe(4-COOH)]R[NMeF][X1][NMeA][NMeF][dA][NMeA][Gly(N(CH2)3COOH)])): the pIC50 in assay [1] (setting [5]) is 7.04; in assay [2] (setting [6]), 9.96.
The corresponding values for `CCCCCCC[C@@H]1NC(=O)[C@H](Cc2ccccc2)N(C)C(=O)[C@H](CCCNC(=N)N)NC(=O)[C@H](Cc2ccc(C(=O)O)cc2)NC(=O)[C@H](Cc2cccc(OCC(=O)O)c2)NC(=O)[C@H]2CCCN2C(=O)[C@H]([C@@H](C)CC)NC(=O)[C@H](Cc2ccccc2)N(C)C(=O)[C@H](Cc2ccc(O)cc2)NC(=O)[C@H](Cc2cn(-c3ccc(C(=O)O)cc3)c3cc(O)ccc23)NC(=O)[C@H](C)NC(=O)[C@H](C)NC(=O)[C@H](C)N(C)C(=O)[C@@H](C)NC(=O)[C@H](Cc2ccccc2)N(C)C(=O)[C@H](C)N(C)C1=O` [Myostatin_99_v483] (cyclo(AA[Trp(6-OH,1-(4-HO2C-Ph))]Y[NMeF]I[dP][Phe(3-OCH2COOH)][Phe(4-COOH)]R[NMeF][X1][NMeA][NMeF][dA][NMeA])) are 7.22 and 9.85.
For `CCCCCCC[C@@H]1NC(=O)[C@H](Cc2ccccc2)N(C)C(=O)[C@H](CCCNC(=N)N)NC(=O)[C@H](Cc2ccc(C(=O)O)cc2)NC(=O)[C@H](Cc2cccc(OCC(=O)O)c2)NC(=O)[C@H]2CCCN2C(=O)[C@H]([C@@H](C)CC)NC(=O)[C@H](Cc2ccccc2)N(C)C(=O)[C@H](Cc2ccc(O)cc2)NC(=O)[C@H](Cc2cn(-c3ccc(C(=O)O)cc3)c3cc(O)ccc23)NC(=O)[C@H](C)NC(=O)CN(CCCC(=O)O)C(=O)CSC[C@H](C(=O)N2CCC(CCC(N)=O)CC2)NC(=O)[C@H](Cc2ccccc2)N(C)C(=O)[C@H](C)N(C)C1=O` [Myostatin_99_v488] ({CH2CO}-[Gly(N(CH2)3COOH)]A[Trp(6-OH,1-(4-HO2C-Ph))]Y[NMeF]I[dP][Phe(3-OCH2COOH)][Phe(4-COOH)]R[NMeF][X1][NMeA][NMeF][dC]-{Piperidine(4-CH2CH2CONH2)}; thioether N-15), the pIC50 in assay [1] (setting [5]) was 7.27; in assay [2] (setting [6]), 9.74.
With `CCCCCCC[C@@H]1NC(=O)[C@@H]2Cc3ccc(cc3)CNC(=O)CCC[C@@H](C(=O)N[C@@H](C)C(=O)N[C@@H](Cc3cn(-c4ccc(C(=O)O)cc4)c4cc(O)ccc34)C(=O)N[C@@H](Cc3ccc(O)cc3)C(=O)N(C)[C@@H](Cc3ccccc3)C(=O)N[C@@H]([C@@H](C)CC)C(=O)N3CCC[C@@H]3C(=O)N[C@@H](Cc3cccc(OCC(=O)O)c3)C(=O)N[C@@H](Cc3ccc(C(=O)O)cc3)C(=O)N[C@@H](CCCNC(=N)N)C(=O)N2C)N(C)C(=O)[C@H](C)N(C)C(=O)[C@@H](C)NC(=O)[C@H](Cc2ccccc2)N(C)C(=O)[C@H](C)N(C)C1=O` [Myostatin_99_v490] (cyclo(A[Trp(6-OH,1-(4-HO2C-Ph))]Y[NMeF]I[dP][Phe(3-OCH2COOH)][Phe(4-COOH)]R[NMePhe(4-CH2NH2)][X1][NMeA][NMeF][dA][NMeA][NMeAad]); lactam 10-16), the pIC50 in assay [1] (setting [5]) was 6.95; in assay [2] (setting [6]), 9.15.
